Experimental data taken from paper PMC6628379, “Synthesis and Biological Evaluation of Novel Selenyl and Sulfur-L-Dopa Derivatives as Potential Anti-Parkinson’s Disease Agents” (Biomolecules, 2019).
“Also recorded” adds a separate entry of the source. Structures can show the parent of a compound that is named as a salt. Where two headings read alike, the source gives them in different places. Where a SMILES comes first, the peptide text is derived from it. [ ]: non-standard residue; d: D form. dDopa = N[C@H](Cc1ccc(O)c(O)c1)C(=O)O; dSeMet = C[Se]CC[C@@H](N)C(=O)O

Key:
[1] = Octanol/water partition coefficient (logP o/w); format: physicochemical; conditions: n-octanol / phosphate buffer pH 7.4, HPLC
Method: The clogP values were calculated using ACD LogP software package, version 4.55 (Advanced Chemistry Development Inc., Toronto, Canada). Octanol/water partition coefficients (logP o/w) were determined by placing 5 mg of SP into 1 mL of anhydrous n-octanol and an equal volume of phosphate buffer pH 7.4. After vigorously shaking, the resulting mixture was allowed to stand until the complete separation of the two phases. Finally, each phase was filtered and analyzed using HPLC [16].

[2] = BBB-PAMPA (parallel artificial membrane permeability); format: in vitro ADME, porcine; conditions: for Classification: PAMPA-BBB class by Pe; for Papp at 16 h: pig, PAMPA-BBB, 16 h at room temperature, pH 7.4, read-out: Pe; for capacity to cross the BBB: BBB-PAMPA
Method: The blood–brain barrier (BBB)-PAMPA method was used to evaluate the ability of SPs to cross the BBB via passive diffusion. The artificial membrane of each microplate was coated with 5 µL of a porcine polar brain lipid extract mixture (purchased from Avantis Polar Lipids, Alabaster, AL, USA). A total of 150 µL of drug solution was put on the membrane (donor plate) while the bottom plate was filled with 300 µL of buffer solution (acceptor plate). The system was incubated for 16 h at room temperature and then the concentration of the drug in the acceptor plate was evaluated using HPLC. The concentration of the drug at the theoretical equilibrium was determined diluting 500 µM of SP solution with phosphate buffer pH 7.4 and then analyzed using HPLC [18]. Pe (10^−6 cm/s) was calculated as the effective permeability coefficient.

[3] = tested on: undifferentiated SH-SY5Y human neuroblastoma cells; test: MTT cell viability, undifferentiated SH-SY5Y cells; format: cell-based
[4] = tested on: differentiated SH-SY5Y human neuroblastoma cells; test: MTT cell viability, RA/PMA-differentiated SH-SY5Y cells; format: cell-based; conditions: dopaminergic differentiated cells, 48 h, 100 µM
[5] = tested on: differentiated SH-SY5Y neuroblastoma cells; test: Nitroblue tetrazolium (NBT) assay; format: cell-based, human; conditions: 1 µM, 24 h incubation
Method: The differentiated SH-SY5Y cells were treated with SP6 and/or LD compounds at 1 µM for 24 h, and then 10^6 cells were harvested, centrifuged for 5 min at 1200 rpm, and resuspended in 1 mL 0.9% NaCl, in which NBT (nitro blue tetrazolium chloride, 1 mg/mL) was dissolved. The cells were incubated for 3 h at 37 °C, centrifuged (10 min at 1200 rpm), resuspended in 1 mL dimethyl sulfoxide, and left for 20 min at 37 °C. Then, cells were plated in a 96 well plate (2 x 10^5 cell/well) and read at 550 nm using a scanning multi-well spectrophotometer (Cary50MPR, Varian).

[6] = tested on: differentiated SH-SY5Y human neuroblastoma cells; test: Intracellular ROS measurement (H2DCFDA assay); format: cell-based; conditions: 1 µM for 24 h, then 25 µM H2O2; 2.5 and 5 min; vs CTRL + 25 µM H2O2
Method: SHSY-5Y human neuroblastoma cells were plated (2700 cells/well) into special optics 96-well plates (Corning-Costar, New York, USA) and the cells were treated with retinoic acid (RA)/phorbol 12-myristate 13-acetate (PMA) in order to obtain a dopaminergic phenotype. The differentiated cells were treated with SP1-6 at 1 μM for 24 h and then washed with an imaging buffer (125 mM NaCl, 5 mM KCl, 1.2 mM MgSO4, 5 mM glucose, 25 mM HEPES, and 2 mM CaCl2). A concentration of 10 μM of 2',7'-dichlorofluorescin diacetate (H2DCFDA, Molecular probes, Life Technologies REF […]) was added and the plates were incubated at 37 °C for 30 min. After the incubation, cells were washed with an imaging buffer and treated with 25 μM H2O2 for an immediate fluorescence measurement. Plates were read every 50 s from 0 to 5 min for kinetic data analysis using a microplate reader (Synergy H1, BioTek), with excitation and emission wavelengths at 490 nm and 520 nm, respectively, and analyzed by Gen 5 version 2.08 (BioTek).

[7] = tested on: RA/PMA-differentiated and 6-OHDA-lesioned SH-SY5Y human neuroblastoma cells; test: Neuroprotection against 6-OHDA (MTT); format: cell-based; conditions: 1 µM
Method: (§1) In order to obtain a dopaminergic phenotype, the cells were treated with retinoic acid (RA)/phorbol 12-myristate 13-acetate (PMA) in a medium supplemented with RA (10 μM) for three days; then, the medium was removed and replaced with growth medium containing PMA (80 nM) for three days.
(§2) SP1–6 were dissolved in dimethyl sulfoxide (DMSO). SH-SY5Y cells were plated onto 96-well plates (2700 cell/well). The undifferentiated cells (UC) were grown for 24 h in normal medium and then incubated with seven different compounds at different concentrations (1, 10, and 100 µM). […] After 24 h and 48 h of incubation with or without the compounds, the both sets of cells (UC and DC) were assessed for viability by using a colorimetric assay of 3-[4,5-dimethylthiazol-2-yl]-2,5-diphenyltetrazolium bromide (MTT). The differentiated SH-SY5Y cells were treated with SP6 or LD compounds at 1 µM for 1 h and then exposed to 25, 50, 75, and 150 µM 6-OHDA. After a further 24 h of incubation, the cultures were assessed for viability using an MTT assay. For experiments with the neurotoxin H2O2, the differentiated SH-SY5Y cells were pretreated with SP6 or LD compounds at 1 µM for 24 h and then exposed to 25, 150, and 300 µM H2O2 for a further 24 h. Cell viability was detected using the MTT assay.

[8] = tested on: differentiated and H2O2-lesioned SH-SY5Y human neuroblastoma cells; test: Neuroprotection against H2O2 (MTT); format: cell-based; conditions: 1 µM
Method: as §1, §2

[9] = Stability in human plasma; format: in vitro ADME; conditions: for half-life at 1 mg/mL: human, 80% human plasma with 20% 0.02 M phosphate buffer
Method: Human plasma was purchased from 3H Biomedical (Uppsala, Sweden, Europe). SP stock solution was added to a mixture of 80% plasma and 20% of 0.02 M phosphate buffer (pH 7.4) at 37 °C to obtain a final drug concentration of 1 mg/mL. Samples of 100 μL were taken at various times, and 200 μL of MeOH containing 0.01 M HCl was used to stop the enzymatic activity. The samples were centrifuged for 5 min at 5000× g, and the resultant supernatants were filtered and analyzed using HPLC [17].

[10] = 24 h, all tested concentrations (1, 10, 100 µM)
[11] = 24 h before and during 24 h with 150 µM H2O2
[12] = 24 h before and during 24 h with 300 µM H2O2
[13] = 80% human plasma, 20% 0.02 M phosphate buffer pH 7.4, 37 °C
[14] = pH 7.4, 80% human plasma, 20% 0.02 M phosphate buffer pH 7.4, 37 °C, read-out: t1/2
[15] = pH 7.4, human plasma, read-out: half-life

N[C@@H](Cc1ccc(O)c(O)c1)C(=O)O [LD, L-p-3,4-dihydroxyphenylalanine hydrochloride, reference compound]
logP [1]: -2.46
Classification [2]: CNS^− (CNS^− (indicative of low BBB permeation): Pe (10^−6 cm/s) < 2)
Papp at 16 h [2]: 0.75 ×10⁻⁶ cm/s
cytotoxic effect [3, 10]: did not show cytotoxic effects
cytotoxic effect ([3]; 48 h, 100 µM): toxic effect
cytotoxic effect [4]: detrimental effect
superoxide anion level [5]: seemed to increase it; also recorded: increase in superoxide anion levels
antioxidant activity (intracellular ROS) [6]: significant antioxidant activity
protection against 6-OHDA toxicity (cell viability) ([7]; 1 h before and during 24 h with 150 µM 6-OHDA): partially counteract the toxic effect
protection against H2O2 toxicity (cell viability) [8, 11]: ineffective
protection against H2O2 toxicity (cell viability) [8, 12]: ineffective

COC(=O)[C@@H](Cc1ccc(OC(C)=O)c(OC(C)=O)c1)NC(=O)CSSCC(=O)N[C@H](Cc1ccc(OC(C)=O)c(OC(C)=O)c1)C(=O)OC [SP1, Methyl (2R)-3-[3,4-bis(acetyloxy)phenyl]-2-{2-[({[(2R)-3-[3,4-bis(acetyloxy)phenyl]-1-methoxy-1-oxopropan-2-yl]carbamoyl}methyl)disulfanyl]acetamido}propanoate]
logP [1]: -0.163
Classification [2]: CNS^− (CNS^− (indicative of low BBB permeation): Pe (10^−6 cm/s) < 2)
Papp at 16 h [2]: 1.15 ×10⁻⁶ cm/s
Kobs [9, 13]: 0.024 (±0.001) min^−1
half-life at 1 mg/mL [9, 14]: 0.48 h

COC(=O)[C@@H](Cc1ccc(OC(C)=O)c(OC(C)=O)c1)NC(=O)CCSSCCC(=O)N[C@H](Cc1ccc(OC(C)=O)c(OC(C)=O)c1)C(=O)OC [SP2, Methyl (2R)-3-[3,4-bis(acetyloxy)phenyl]-2-{3-[(2-{[(2R)-3-[3,4-bis(acetyloxy)phenyl]-1-methoxy-1-oxopropan-2-yl]carbamoyl}ethyl)disulfanyl]propanamido}propanoate]
logP [1]: 0.828
Classification [2]: CNS^− (CNS^− (indicative of low BBB permeation): Pe (10^−6 cm/s) < 2)
Papp at 16 h [2]: 1.82 ×10⁻⁶ cm/s
Kobs [9, 13]: 0.010 (±0.001) min^−1
half-life at 1 mg/mL [9, 14]: 1.1 h

COC(=O)[C@@H](Cc1ccc(OC(C)=O)c(OC(C)=O)c1)NC(=O)[C@@H](CSSC[C@@H](NC(C)=O)C(=O)N[C@H](Cc1ccc(OC(C)=O)c(OC(C)=O)c1)C(=O)OC)NC(C)=O [SP3, Methyl (2R)-3-[3,4-bis(acetyloxy)phenyl]-2-[(2S)-3-{[(2S)-2-{[(2R)-3-[3,4-bis(acetyloxy)phenyl]-1-methoxy-1-oxopropan-2-yl]carbamoyl}-2-acetamidoethyl]disulfanyl}-2-acetamidopropanamido]propanoate]
logP [1]: 1.07
capacity to cross the BBB [2]: possess the capacity to cross the BBB
Papp at 16 h [2]: 3.1 ×10⁻⁶ cm/s
Kobs [9, 13]: 0.014 (±0.003) min^−1
half-life at 1 mg/mL [9, 14]: 0.837 h

COC(=O)[C@@H](Cc1ccc(OC(C)=O)c(OC(C)=O)c1)NC(=O)C[Se][Se]CC(=O)N[C@H](Cc1ccc(OC(C)=O)c(OC(C)=O)c1)C(=O)OC [SP4, Methyl (2R)-3-[3,4-bis(acetyloxy)phenyl]-2-{2-[({[(2R)-3-[3,4-bis(acetyloxy)phenyl]-1-methoxy-1-oxopropan-2-yl]carbamoyl}methyl)diselanyl]acetamido}propanoate]
logP [1]: -1.17
Classification [2]: CNS^+ (CNS^+ (indicative of high BBB permeation): Pe (10^−6 cm/s) > 4)
Papp at 16 h [2]: 0.94 ×10⁻⁶ cm/s
Kobs [9, 13]: Immediate hydrolysis
t1/2 [9, 13]: Immediate hydrolysis

COC(=O)[C@@H](Cc1ccc(O)c(O)c1)NC(=O)[C@@H](CC[Se]C)NC(C)=O [SP5, Methyl (2R)-3-(3,4-dihydroxyphenyl)-2-[(2R)-2-acetamido-4-(methylselanyl)butanamido]-propanoate] (Ac-[dSeMet]-[dDopa]-OMe)
logP [1]: 0.51
capacity to cross the BBB [2]: unable to completely cross the BBB
Classification [2]: CNS^− (CNS^− (indicative of low BBB permeation): Pe (10^−6 cm/s) < 2)
Papp at 16 h [2]: 2.3 ×10⁻⁶ cm/s
Kobs [9, 13]: 0.005 (±0.0001) min^−1
half-life at 1 mg/mL [9, 14]: 2.1 h
half-life at 1 mg/mL [9, 15]: > 2 h

COC(=O)[C@@H](Cc1ccc(OC(C)=O)c(OC(C)=O)c1)NC(=O)[C@@H](CC[Se]C)NC(C)=O [SP6, Methyl (2R)-3-[3,4-bis(acetyloxy)phenyl]-2-[(2R)-2-acetamido-4-(methylselanyl)butanamido]-propanoate]
logP [1]: 1.44
capacity to cross the BBB [2]: possess the capacity to cross the BBB
Papp at 16 h [2]: 4.5 ×10⁻⁶ cm/s
Kobs [9, 13]: 0.004 (±0.0001) min^−1
stability in plasma ([9]; human plasma): resistant to the enzymatic hydrolyses by plasma esterases
half-life at 1 mg/mL [9, 14]: 2.89 h
half-life at 1 mg/mL [9, 15]: > 2 h
cytotoxic effect [3, 10]: did not show cytotoxic effects
superoxide anion level [5]: significantly reduced the superoxide anion level
antioxidant activity (intracellular ROS) [6]: significant antioxidant activity; also recorded: able to reduce ROS levels
protection against 6-OHDA toxicity (cell viability) ([7]; 1 h before and during 24 h with 25, 50, 75, 150 µM 6-OHDA): protective action against the toxin at all tested concentrations
protection against H2O2 toxicity (cell viability) [8, 11]: effective in countering the toxic effect
protection against H2O2 toxicity (cell viability) [8, 12]: partially countered
